Experiments:
NRP-1 [1] = system: NRP-1; design: method as in 2 sources, ref 21 = [21]; PMID 17983687; doi:10.1016/j.peptides.2007.09.013; 21. Starzec A. Ladam P. Vassy R. Badache S. Bouchemal N. Navaza A. du Penhoat C.H. Perret G.Y. Structure-function analysis of the antiangiogenic ATWLPPR peptide inhibiting VEGF (165) binding to neurop ||| ref 36 = [36]; PMID 11327725; doi:10.1006/bbrc.2001.4790; 36. Jia H. Lohr M. Jezequel S. Davis D. Shaikh S. Selwood D. Zachary I. Cysteine-rich and basic domain HIV-1 Tat peptides inhibit angiogenesis and induce endothelial cell apoptosis Biochem. Biophys. R; details: cited from earlier work
HUVECs = assay: Annexin V-FITC/PI staining, flow cytometry (apoptosis); format: cell-based, human; details: 320 μmol/L, 24 h
Description: HUVECs were seeded into 6-well culture plates (3 × 10^5 cells/well). […] After discarding the supernatant and washing with cold PBS, the cells were fixed in 4% paraformaldehyde and stained with Hoechst 33,258 for 10 min. Then, the cells were washed with cold PBS and observed using an inverted fluorescence microscope. HUVECs were treated with different peptides (the methods were the same as the Hoechst staining). After 24 h, cells were collected by trypsin digestion and washed with PBS. Annexin V-FITC/PI staining was conducted according to the manufacturer’s instructions for the Apoptosis Detection Kit. Briefly, 195 μL of Annexin V-FITC/PI dilution buffer was added to resuspend the cells. Then, 5 μL of Annexin V-FITC and 10 μL of PI staining solutions were added and gently mixed with the cells. After incubation at room temperature in the dark for 10 min, the apoptotic cells were detected by flow cytometry.

red blood cells = assay: Hemolysis assay; details: 2.5–640 μmol/L; 37 °C, 1 h; 540 nm; mouse red blood cells; n = 3
Description: The fresh blood of mice was centrifuged at 2000 r/min for 10 min, and the upper layer of serum was discarded, then mixed with normal saline and centrifuged at 2000 r/min for 10 min, repeated three times, and the supernatant was removed to obtain the lower layer of red blood cells. Then, 1 mL of red blood cells was diluted to 50 mL with normal saline. […] The samples were incubated at 37 °C for 1 h, centrifuged at 2000 r/min for 10 min, and photographed. Light absorption of samples was measured at 540 nm on a microplate reader.
Cell hemolysis rate (%) = (OD experimental group − negative control group)/(OD positive control group − negative control group) × 100%.

NRP-1 [2] = details: peptide 1000 nmol/L; VEGF-A165 0.5-8 nmol/L; CM5 chip; HBS-EP
Description: The SPR assay was performed using the Biacore S200 instrument (GE Healthcare, Uppsala, Sweden). Firstly, the CM5 sensor chip was activated with EDC/NHS. Then, the recombinant VEGFR-2 and NRP-1 proteins were immobilized on the surface of the sensor chip according to the operating instructions of amine coupling. VEGF-A165 was diluted to 8, 4, 2, 1, and 0.5 nmol/L in different concentrations of peptide solution dissolved by HBS-EP buffer (0, 0.016, 0.064, 0.256, and 1 μmol/L, respectively). The Kinetics/Affinity program was selected, and the automatic continuous injection program was set. The injection flow rate was 30 μL/min, the injection time was 120 s, and the dissociation time was 220 s. At the same time, zero-concentration injection wells and 0.5 nmol/L repeat-concentration injection wells of VEGF-A165 were set. At the end of each injection, the channels were flushed with glycine-HCl solution for 30 s until response values were returned to baseline.

[3] = system: intracranial U87-mCherry-luc glioma; assay: In vivo anti-glioma study (bioluminescence); design: species or system nude mice; details: 20 mg/kg/day i.v. (tail vein), 11 days; days 4, 7, 11, 14; n = 5
Description: The orthotopic U87-mCherry-luc glioma-bearing nude mice were randomly assigned to 6 groups (n = 5) according to the bioluminescence intensity of glioma measured on day 4. […] The bioluminescence intensity was measured on days 4, 7, 11, and 14, respectively. Nude mice were weighed daily. On day 15, the mice were sacrificed, and the glioma-bearing brains were harvested. The brain tissues were fixed with 4.0% paraformaldehyde, embedded in paraffin, and cut into slices. The TUNEL staining and CD31 immunohistochemical staining were conducted according to standard histological procedures.

[4] = system: zebrafish embryo intersegmental vessel; assay: Zebrafish embryo intersegmental vessel angiogenesis; format: in vivo; details: 25 µmol/L; 24 h; 28 °C; fluorescence microscope; vs control; n = 3
Description: After a certain period, healthy, sexually mature female and male zebrafish were mated in a 1:1 ratio. After 24 h, the fertilized eggs were removed, disinfected, and washed, and then placed in embryo culture water and cultured in an incubator at 28 °C for 24 h. The fertilized eggs were washed with chain enzyme protease E solution (1 mg/mL) to remove the egg membrane on the surface and placed under a microscope to observe and select the normally developing zebrafish embryos, and then placed into a 24-well plate. […] The control group was added with the same volume of embryo culture water, and then placed in an incubator at 28 °C for 24 h. Zebrafish embryos were randomly removed from each group and observed under a fluorescence microscope. The total length of zebrafish internode vessels was calculated and counted.

VEGFR-2 = format: binding, human; details: peptide 256 and 1000 nmol/L; VEGF-A165 0.5-8 nmol/L; CM5 chip; HBS-EP
Description: To determine the effect of TAT-AT7 in competition with VEGF-A165 binding to VEGFR-2 or NRP-1, the SPR assay was conducted. The whole operation was conducted on a Biacore S200 instrument. The recombinant VEGFR-2 or NRP-1 proteins were firstly immobilized on a CM5 chip by an amine-coupling reaction. VEGF-A165 ligands with gradient concentrations in the absence or presence of different peptides were then flowed over the CM5 chip. The binding of VEGF-A165 ligands to the immobilized recombinant VEGFR-2 or NRP-1 proteins led to an increase of the refractive index on the surface of the chip, which could be converted into the fluctuation of electrical signals in the response (RU). As the concentration of VEGF-A165 was higher, the response value was also higher. However, with the addition of different peptides, the response value decreased to different degrees (Figure 3A and Figure 4A).
(TAT), ATWLPPR (AT7), and […] (TAT-AT7) were synthesized from China Peptides Co., Ltd. (Shanghai, China). The Hoechst 33,258 staining kit, Annexin V-FITC/PI apoptosis detection kit, and BCA protein assay kit were obtained from Beyotime Biotechnology (Nantong, China). The total protein extraction kit was from BestBio (Shanghai, China). The CM5 sensor chip was obtained from GE Healthcare Life Sciences (Uppsala, Sweden). Purified recombinant human VEGFR-2 and NRP-1 receptor proteins were purchased from R&D Systems (Minneapolis, MN, USA). Recombinant human endothelial growth factor-A165 (VEGF-A165) was obtained from PeproTech (Rocky Hill, NJ, USA). Anti-ERK1/2, anti-p-ERK1/2, anti-p-VEGFR-2, anti-AKT, anti-p-AKT, anti-p-SRC, anti-p-FAK, anti-p38 MAPK, anti-p-p38 MAPK, anti-p-PLC-γ, and anti-GAPDH antibodies were purchased from Cell Signaling Technology (Danvers, MA, USA). Anti-VEGFR-2, anti-FAK, and anti-SRC were purchased from Proteintech Group, Inc (Wuhan, China). F-12K medium, heparin, and endothelial cell growth supplement (ECGS) were from Macgene (Beijing, China). DMEM medium and fetal bovine serum (FBS) were obtained from Gibco®, Life Technologies (Carlsbad, CA, USA). […]

Molecule: SYGRKKRRQRRR [HIV-1 Tat-derived peptide]
- disturbing the cross-linking of VEGF to NRP-1 (NRP-1 [1]): displayed potency in disturbing the cross-linking of VEGF to NRP-1

Molecule: KKRRQRRRPPQG [HIV-1 Tat-derived peptide]
- disturbing the cross-linking of VEGF to NRP-1 (NRP-1 [1]): displayed potency in disturbing the cross-linking of VEGF to NRP-1

Molecule: KRRQRRRPPQGNQAHQDPLP [HIV-1 Tat-derived peptide]
- disturbing the cross-linking of VEGF to NRP-1 (NRP-1 [1]): displayed potency in disturbing the cross-linking of VEGF to NRP-1

Molecule: N=C(N)NCCC[C@H](NC(=O)[C@H](CCCNC(=N)N)NC(=O)[C@H](CCCNC(=N)N)NC(=O)[C@H](CCC(N)=O)NC(=O)[C@H](CCCNC(=N)N)NC(=O)[C@H](CCCNC(=N)N)NC(=O)[C@H](CCCCN)NC(=O)[C@H](CCCCN)NC(=O)[C@@H](N)CCCNC(=N)N)C(=O)O [TAT, reference compound]
- induction of apoptosis (HUVECs; Hoechst and Annexin V-FITC/PI staining): no obvious effect of promoting apoptosis
- total apoptotic rate (Q1-UR and Q1-LR) (HUVECs; mean ± SD, n = 3, control (7.17 ± 1.42)%): 8.94 ± 3.52%
- hemolysis (red blood cells): did not cause obvious hemolysis
- hemolysis rate (red blood cells): lower than 5%
- inhibition of binding of VEGF-A165 and NRP-1 (NRP-1 [2]): displayed inhibitory effects on the binding of VEGF-A165 and NRP-1, but it did not completely inhibit the binding
- glioma growth (bioluminescence) [3]: no significant difference compared to the control group
- intersegmental vascular growth [4]: no obvious effect on intersegmental vascular growth
- effect on VEGF-A165 and VEGFR-2 binding (RU) (VEGFR-2): less inhibitory effects on VEGF-A165 and VEGFR-2 binding than TAT-AT7

Source: article PMC10218704, “A Novel Blood–Brain Barrier-Penetrating and Vascular-Targeting Chimeric Peptide Inhibits Glioma Angiogenesis” (International Journal of Molecular Sciences, 2023)
